In patent publication US8633205B2, “Substituted pyrrolo[2,3-d]pyrimidines as inhibitors of protein kinases” (Vertex Pharmaceuticals Incorporated, priority 2005, dated 2014):

Experiments:
Assay type in all cases: biochemical
JAK2 = JAK2 (Homo sapiens, UniProt O60674); test: JAK2 Inhibition Assay; settings: 15 μM poly(Glu)4Tyr, 12 μM ATP; read-out: JAK2 enzyme inhibition (Ki)
Experimental: (§1) Compounds were screened for their ability to inhibit JAK using the […] below. Reactions were carried out in a kinase buffer containing 100 mM HEPES (pH 7.4), 1 mM DTT, 10 mM MgCl2, 25 mM NaCl, and 0.01% BSA.
(§2) Substrate concentrations in the assay were 5 μM ATP (200 uCi/μmole ATP) 1 μM poly(Glu)4Tyr. Reactions were carried out at 25 ° C. and 1 nM JAK3.
(§3) To each well of a 96 well polycarbonate plate was added 1.5 μl of a JAK3 inhibitor along with 50 μl of kinase buffer containing 2 μM poly(Glu)4Tyr and 10 μM ATP. This was then mixed and 50 μl of kinase buffer 2 nM JAK3 enzyme was added to start the reaction. After 20 minutes at room temperature (25C), the reaction was stopped with 50 μl of 20% trichloroacetic acid (TCA) that also contained 0.4 mM ATP. The entire contents of each well were then transferred to a 96 well glass fiber filter plate using a TomTek Cell Harvester. After washing, 60 μl of scintillation fluid was added and ^33P incorporation detected on a Perkin Elmer TopCount.
As described above in Example 11 except that JAK-2 enzyme is used, the final poly(Glu)4Tyr concentration is 15 μM, and final ATP concentration is 12 μM.

JAK3 = biological target: T1, JAK3 (Homo sapiens, UniProt P52333); test: JAK3 Inhibition Assay; settings: 1 μM poly(Glu)4Tyr, 5 μM ATP, 1 nM JAK3, 25 °C; read-out: JAK3 enzyme inhibition (Ki)
T1 sequence (P52333 1-1124): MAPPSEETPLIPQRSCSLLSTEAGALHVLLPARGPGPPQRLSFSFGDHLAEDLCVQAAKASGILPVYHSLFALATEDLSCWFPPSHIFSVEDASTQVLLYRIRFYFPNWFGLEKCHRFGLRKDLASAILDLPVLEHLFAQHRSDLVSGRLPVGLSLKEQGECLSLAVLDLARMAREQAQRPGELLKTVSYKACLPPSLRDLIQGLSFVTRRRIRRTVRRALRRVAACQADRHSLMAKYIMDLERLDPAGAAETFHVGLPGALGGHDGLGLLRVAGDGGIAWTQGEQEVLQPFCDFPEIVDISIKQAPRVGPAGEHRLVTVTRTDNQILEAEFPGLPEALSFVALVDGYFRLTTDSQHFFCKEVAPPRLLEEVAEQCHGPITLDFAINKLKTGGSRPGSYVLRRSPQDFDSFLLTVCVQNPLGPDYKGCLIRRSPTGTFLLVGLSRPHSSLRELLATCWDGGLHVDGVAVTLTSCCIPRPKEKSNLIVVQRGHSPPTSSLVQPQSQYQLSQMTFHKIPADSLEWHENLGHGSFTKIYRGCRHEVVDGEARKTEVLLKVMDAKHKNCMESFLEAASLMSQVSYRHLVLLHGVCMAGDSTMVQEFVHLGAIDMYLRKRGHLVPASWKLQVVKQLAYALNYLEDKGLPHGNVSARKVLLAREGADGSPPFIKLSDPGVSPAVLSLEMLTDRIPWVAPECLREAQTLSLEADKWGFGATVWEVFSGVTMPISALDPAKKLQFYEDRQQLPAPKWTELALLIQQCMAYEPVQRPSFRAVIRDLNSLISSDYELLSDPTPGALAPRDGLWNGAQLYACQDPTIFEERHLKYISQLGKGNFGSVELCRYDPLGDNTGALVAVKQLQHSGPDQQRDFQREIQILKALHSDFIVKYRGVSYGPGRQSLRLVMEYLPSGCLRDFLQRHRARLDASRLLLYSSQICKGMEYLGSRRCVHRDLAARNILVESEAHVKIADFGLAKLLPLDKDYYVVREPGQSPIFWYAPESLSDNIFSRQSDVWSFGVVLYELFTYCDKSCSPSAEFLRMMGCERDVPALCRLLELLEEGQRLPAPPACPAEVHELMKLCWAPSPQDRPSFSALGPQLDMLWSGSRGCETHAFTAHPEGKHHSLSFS
Experimental: as §1, §2, §3

ROCK = biological target: T2, ROCK (Homo sapiens, UniProt Q13464); test: ROCK Inhibition Assays; settings: read-out: ROCK enzyme inhibition (Ki)
T2 construct: ROCK I (AA 6-553)
Experimental: Compounds are screened for their ability to inhibit ROCK I (AA 6-553) activity using a standard coupled enzyme system (Fox et al. Protein Sci. 7: 2249, 1998). Reactions are carried out in a solution containing 100 mM HEPES (pH 7.5), 10 mM MgCl2, 25 mM NaCl, 2 mM DTT and 1.5% DMSO. Final substrate concentrations in the assay are 45 μM ATP (Sigma Chemicals, St Louis, Mo.) and 200 μM peptide (American Peptide, Sunnyvale, Calif.). Reactions are carried out at 30 ° C. and 45 nM ROCK I. Final concentrations of the components of the coupled enzyme system are 2.5 mM phosphoenolpyruvate, 350 μM NADH, 30 μg/ml pyruvate kinase and 10 μg/ml lactate dehydrogenase.
Compounds are screened for their ability to inhibit ROCK using a standard radioactive enzyme assay. Assays are carried out in a solution containing 100 mM HEPES (pH 7.5), 10 mM MgCl2, 25 mM NaCl, 2 mM DTT and 1.5% DMSO. Final substrate concentrations in the assay are 13 μM [γ-^33P] ATP (25 mCi ^33P ATP/mmol ATP, Perkin Elmer, Cambridge, Mass./Sigma Chemicals, St Louis, Mo.) and 27 μM Myelin Basic Protein (MBP). Final enzyme concentration in the assay is 5 nM ROCK. Assays are carried out at room temperature. 1.5 μl of DMSO stock containing serial dilutions of the compound of the present invention (concentrations ranging from 10 μM to 2.6 nM) is placed in a 96 well plate. 50 μl of Solution 1 (100 mM HEPES (pH 7.5), 10 mM MgCl2, […] [γ-^33P] ATP) is added to the plate. The reaction is initiated by addition of 50 μl of Solution 2 (100 mM HEPES (pH 7.5), 10 mM MgCl2, 4 mM DTT, […] and 10 nM ROCK). After 2 hours the reaction is quenched with 50 μL of 30% trichloroacetic acid (TCA, Fisher) containing 9 mM ATP. Transfer of 140 μL of the quenched reaction to a glass fiber filter plate (Corning, Cat. No.3511) is followed by washing 3 times with 5% TCA. 50 μL of Optima Gold scintillation fluid (Perkin Elmer) is added and the plates are counted on a Top Count (Perkin Elmer). After removing mean background values for all of the data points the data is fit using Prism software to obtain a Ki(app).

PKA = PKA (Homo sapiens, UniProt P17612); test: PKA Inhibition Assay (coupled enzyme assay); settings: 50 μM ATP, 80 μM Kemptide, 18 nM PKA, 30 °C
Experimental: Compounds were screened for their ability to inhibit PKA using a standard coupled enzyme assay (Fox et al., Protein Sci, 1998, 7, 2249). Assays were carried out in a mixture of 100 mM HEPES (pH 7.5), 10 mM MgCl2, 25 mM NaCl, 1 mM DTT and 3% DMSO. Final substrate concentrations in the assay were 50 μM ATP (Sigma Chemicals) and 80 μM peptide (Kemptide, American Peptide, Sunnyvale, Calif.). Assays were carried out at 30 ° C. and 18 nM PKA. Final concentrations of the components of the coupled enzyme system were 2.5 mM phosphoenolpyruvate, 300 μM NADH, 30 μg/ml pyruvate kinase and 10 μg/ml lactate dehydrogenase.
An assay stock buffer solution was prepared containing all of the reagents listed above, with the exception of ATP, and the test compound of the present invention. 55 μl of the stock solution was placed in a 96 well plate followed by addition of 2 μl of DMSO stock containing serial dilutions of the test compound of the present invention (typically starting from a final concentration of 5 μM). The plate was preincubated for 10 minutes at 30° C. and the reaction initiated by addition of 5 μl of ATP (final concentration 50 μM). Initial reaction rates were determined with a Molecular Devices SpectraMax Plus plate reader over a 15 minute time course. IC50 and Ki data were calculated from non-linear regression analysis using the Prism software package (GraphPad Prism version 3.0a for Macintosh, GraphPad Software, San Diego, Calif., USA).

Chain of JAK2 (O60674 whole entry): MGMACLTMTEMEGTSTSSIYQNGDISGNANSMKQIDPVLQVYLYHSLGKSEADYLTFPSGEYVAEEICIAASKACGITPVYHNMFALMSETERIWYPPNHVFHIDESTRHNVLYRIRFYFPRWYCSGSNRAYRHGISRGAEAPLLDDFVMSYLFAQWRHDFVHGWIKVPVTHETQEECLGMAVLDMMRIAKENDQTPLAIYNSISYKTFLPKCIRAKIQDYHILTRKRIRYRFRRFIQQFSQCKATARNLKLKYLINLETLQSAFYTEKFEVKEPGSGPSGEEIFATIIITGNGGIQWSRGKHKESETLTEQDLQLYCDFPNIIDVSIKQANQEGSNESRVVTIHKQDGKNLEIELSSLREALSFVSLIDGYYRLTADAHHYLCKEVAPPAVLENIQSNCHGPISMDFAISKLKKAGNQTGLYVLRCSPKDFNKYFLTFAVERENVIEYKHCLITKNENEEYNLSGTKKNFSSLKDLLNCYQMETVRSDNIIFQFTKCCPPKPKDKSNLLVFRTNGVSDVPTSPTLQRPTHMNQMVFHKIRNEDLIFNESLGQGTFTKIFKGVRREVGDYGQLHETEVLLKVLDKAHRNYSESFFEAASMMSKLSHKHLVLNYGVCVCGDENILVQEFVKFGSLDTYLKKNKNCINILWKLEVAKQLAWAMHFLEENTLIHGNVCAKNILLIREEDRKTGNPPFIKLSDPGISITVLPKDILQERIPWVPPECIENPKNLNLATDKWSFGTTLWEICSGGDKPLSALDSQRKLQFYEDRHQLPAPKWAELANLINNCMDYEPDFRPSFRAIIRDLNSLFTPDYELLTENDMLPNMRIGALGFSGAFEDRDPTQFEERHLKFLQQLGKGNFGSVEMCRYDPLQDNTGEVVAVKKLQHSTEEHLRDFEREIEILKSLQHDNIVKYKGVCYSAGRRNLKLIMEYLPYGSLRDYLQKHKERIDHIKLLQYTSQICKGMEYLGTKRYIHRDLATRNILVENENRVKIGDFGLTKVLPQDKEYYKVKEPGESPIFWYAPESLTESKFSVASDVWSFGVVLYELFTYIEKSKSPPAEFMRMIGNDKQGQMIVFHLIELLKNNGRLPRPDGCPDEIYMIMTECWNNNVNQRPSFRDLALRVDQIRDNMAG
T2 sequence (Q13464 6-553): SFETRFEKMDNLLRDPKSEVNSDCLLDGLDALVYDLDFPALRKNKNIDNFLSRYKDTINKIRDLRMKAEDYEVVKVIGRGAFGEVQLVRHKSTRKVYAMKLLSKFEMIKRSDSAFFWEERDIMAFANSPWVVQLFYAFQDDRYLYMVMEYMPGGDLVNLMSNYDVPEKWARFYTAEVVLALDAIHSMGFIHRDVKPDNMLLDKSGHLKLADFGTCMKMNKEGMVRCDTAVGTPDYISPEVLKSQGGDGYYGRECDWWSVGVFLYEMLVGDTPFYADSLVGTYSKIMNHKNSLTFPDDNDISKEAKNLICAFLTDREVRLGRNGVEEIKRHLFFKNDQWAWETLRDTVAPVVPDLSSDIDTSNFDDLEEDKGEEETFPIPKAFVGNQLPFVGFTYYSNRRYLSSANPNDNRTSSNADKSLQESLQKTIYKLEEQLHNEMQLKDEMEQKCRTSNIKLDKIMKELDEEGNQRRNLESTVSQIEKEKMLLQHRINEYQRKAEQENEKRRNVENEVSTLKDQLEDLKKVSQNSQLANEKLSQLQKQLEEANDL

SMILES | Ki (JAK2) [µM] | Ki (JAK3) [µM] | Ki (ROCK) [µM] | Ki (PKA) [µM]
C1=C(c2ncnc3[nH]ccc23)CCNC1 [Compound 10] | > 5 | > 5 | 0.5 to 5 | 0.5 to 5
O=C(CC(F)(F)F)N1CC=C(c2ncnc3[nH]ccc23)CC1 [Compound 16] | 0.5 to 5 | > 5 | 0.5 to 5 | 0.5 to 5
C1=C(c2ncnc3[nH]ccc23)CCCCC1 [Compound 20] | < 0.5 | < 0.5 | 0.5 to 5 | 0.5 to 5
CC(C)(C#N)CCCCc1ncnc2[nH]ccc12 [Compound 30] | 0.5 to 5 | 0.5 to 5 | 0.5 to 5 | 0.5 to 5
C1=C(c2ncnc3[nH]ccc23)CCSC1 [Compound 13] | < 0.5 | < 0.5 | 0.5 to 5 | 0.5 to 5
FC(F)(F)c1ccc(/C=C/c2ncnc3[nH]ccc23)cc1 [Compound 7, 4-(4-(trifluoromethyl)styryl)-7H-pyrrolo[2,3-d]pyrimidine] | < 0.5 | < 0.5 | 0.5 to 5 | 0.5 to 5
